US7932270B2 (Cytokinetics, Inc., priority 2006, dated 2011)

What follows are compounds tested against T1, chicken gizzard smooth muscle myosin subfragment-1 chemically crosslinked to cardiac or skeletal actin (Gallus gallus, UniProt P10587) (assay: Smooth muscle myosin ATPase dose response assay (pyruvate kinase/horseradish peroxidase/pyruvate oxidase-coupled, amplex red fluorescence)). Settings: read-out: IC50 Arithmetic Mean.
T1 construct: chicken gizzard smooth muscle myosin subfragment-1; from tissue; host or cells: chicken gizzard
Format: biochemical
Procedure, shortened: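 Chicken gizzard myosin S1 crosslinked to cardiac or skeletal actin, titrated to a set hydrolysis rate; 0.15 mM ATP, 12 mM PIPES pH 7.00, 100 mM KCl, 2 mM MgCl2. Pyruvate kinase/pyruvate oxidase/HRP coupling with amplex red fluorescence; IC50 from 4-parameter fit.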

T1 sequence (P02607 2-151): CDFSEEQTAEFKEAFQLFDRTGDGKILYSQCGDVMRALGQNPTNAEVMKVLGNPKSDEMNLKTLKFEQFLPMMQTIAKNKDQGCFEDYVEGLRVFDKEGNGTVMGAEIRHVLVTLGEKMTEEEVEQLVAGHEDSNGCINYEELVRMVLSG
T1 sequence (P10587 84-789): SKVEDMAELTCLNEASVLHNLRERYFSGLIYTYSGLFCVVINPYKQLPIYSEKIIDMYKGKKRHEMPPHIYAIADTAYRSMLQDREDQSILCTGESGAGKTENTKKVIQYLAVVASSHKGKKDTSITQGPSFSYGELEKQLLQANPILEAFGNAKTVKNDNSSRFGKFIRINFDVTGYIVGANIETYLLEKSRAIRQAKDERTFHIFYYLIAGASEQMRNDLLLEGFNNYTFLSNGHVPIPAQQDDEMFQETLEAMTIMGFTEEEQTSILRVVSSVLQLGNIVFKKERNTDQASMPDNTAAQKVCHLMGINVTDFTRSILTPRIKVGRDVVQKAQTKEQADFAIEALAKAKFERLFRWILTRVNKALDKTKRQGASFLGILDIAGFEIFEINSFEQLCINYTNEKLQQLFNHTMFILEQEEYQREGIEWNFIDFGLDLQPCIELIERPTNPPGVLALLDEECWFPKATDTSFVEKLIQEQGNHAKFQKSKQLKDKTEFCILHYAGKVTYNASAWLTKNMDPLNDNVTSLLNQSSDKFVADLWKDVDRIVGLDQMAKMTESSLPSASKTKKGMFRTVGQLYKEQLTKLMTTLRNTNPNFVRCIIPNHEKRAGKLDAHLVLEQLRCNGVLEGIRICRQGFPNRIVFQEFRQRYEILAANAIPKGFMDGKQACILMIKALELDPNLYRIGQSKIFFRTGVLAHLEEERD

Compound	IC50 [nM]
CC[C@H](CNC(=O)c1cc(F)c(-c2cnn(C)c2)nc1NCCc1cccc(F)c1)C(=O)OC [methyl (2R)-2-{[(5-fluoro-2-{[2-(3-fluorophenyl)ethyl]amino}-6-(1-methylpyrazol-4-yl)(3-pyridyl))carbonylamino]methyl}butanoate]	117
CC[C@H](CNC(=O)c1cc(F)c(-c2cn[nH]c2)nc1NCCc1cccc(F)c1)C(=O)OC [methyl (2R)-2-{[(5-fluoro-2-{[2-(3-fluorophenyl)ethyl]amino}-6-pyrazol-4-yl(3-pyridyl))carbonylamino]methyl}butanoate]	117
COC(=O)N1CC[C@@H]1CNC(=O)c1ccc(-c2ccccc2C#N)nc1NCCc1cccc(F)c1 [methyl (2R)-2-{[(6-(2-cyanophenyl)-2-{[2-(3-fluorophenyl)ethyl]amino}(3-pyridyl))carbonylamino]methyl}azetidinecarboxylate]	73
COC(=O)N1CCNC[C@@H]1CNC(=O)c1ccc(-c2ccccc2C#N)nc1NCCc1cccc(F)c1 [methyl (2R)-2-{[(6-(2-cyanophenyl)-2-{[2-(3-fluorophenyl)ethyl]amino}(3-pyridyl))carbonylamino]methyl}piperazinecarboxylate]	11600
COC(=O)N1CCCC[C@@H]1CNC(=O)c1ccc(-c2ccccc2C#N)nc1NCCc1cccc(F)c1 [methyl (2R)-2-{[(6-(2-cyanophenyl)-2-{[2-(3-fluorophenyl)ethyl]amino}(3-pyridyl))carbonylamino]methyl}piperidinecarboxylate]	4280
COC(=O)N1CCC[C@@H]1CNC(=O)c1ccc(-c2ccccc2C#N)nc1NCCc1cccc(F)c1 [methyl (2R)-2-{[(6-(2-cyanophenyl)-2-{[2-(3-fluorophenyl)ethyl]amino}(3-pyridyl))carbonylamino]methyl}pyrrolidinecarboxylate]	101
COC(=O)[C@H](C)CNC(=O)c1cc(F)c(-c2cnn(C)c2)nc1NCCc1cccc(F)c1 [methyl (2R)-3-[(5-fluoro-2-{[2-(3-fluorophenyl)ethyl]amino}-6-(1-methylpyrazol-4-yl)(3-pyridyl))carbonylamino]-2-methylpropanoate]	100
COC(=O)[C@H](C)CNC(=O)c1cc(F)c(-c2cn[nH]c2)nc1NCCc1cccc(F)c1 [methyl (2R)-3-[(5-fluoro-2-{[2-(3-fluorophenyl)ethyl]amino}-6-pyrazol-4-yl(3-pyridyl))carbonylamino]-2-methylpropanoate]	73
COC(=O)[C@H](C)CNC(=O)c1ccc(-c2ccccc2C#N)nc1NCCc1cccc(F)c1 [methyl (2R)-3-[(6-(2-cyanophenyl)-2-{[2-(3-fluorophenyl)ethyl]amino}(3-pyridyl))carbonylamino]-2-methylpropanoate]	186
COC(=O)[C@@H](CN)NC(=O)c1ccc(-c2ccccc2C#N)nc1NCCc1cccc(F)c1 [methyl (2R)-3-amino-2-[(6-(2-cyanophenyl)-2-{[2-(3-fluorophenyl)ethyl]amino}(3-pyridyl))carbonylamino]propanoate]	2380
COC(=O)[C@H](C)CNC(=O)c1cc(F)c(-c2cnn(C)c2)nc1N [methyl (2R)-3-{[2-amino-5-fluoro-6-(1-methylpyrazol-4-yl)(3-pyridyl)]carbonylamino}-2-methylpropanoate]	86000
COC(=O)[C@H](CNC(=O)c1ccc(-c2ccccc2C#N)nc1NCCc1cccc(F)c1)NC(C)=O [methyl (2S)-2-(acetylamino)-3-[(6-(2-cyanophenyl)-2-{[2-(3-fluorophenyl)ethyl]amino}(3-pyridyl))carbonylamino]propanoate]	1640
COC(=O)[C@H](CO)NC(=O)c1ccc(-c2ccccc2C#N)nc1NCCc1cccc(F)c1 [methyl (2S)-2-[(6-(2-cyanophenyl)-2-{[2-(3-fluorophenyl)ethyl]amino}(3-pyridyl))carbonylamino]-3-hydroxypropanoate]	4180
COC(=O)[C@H](C)NC(=O)c1ccc(-c2ccccc2C#N)nc1NCCc1cccc(F)c1 [methyl (2S)-2-[(6-(2-cyanophenyl)-2-{[2-(3-fluorophenyl)ethyl]amino}(3-pyridyl))carbonylamino]propanoate]	6980
COC(=O)[C@@H](N)CNC(=O)c1ccc(-c2ccccc2C#N)nc1NCCc1cccc(F)c1 [methyl (2S)-2-amino-3-[(6-(2-cyanophenyl)-2-{[2-(3-fluorophenyl)ethyl]amino}(3-pyridyl))carbonylamino]propanoate]	619
COC(=O)N1CCN(C)C[C@@H]1CNC(=O)c1ccc(-c2ccccc2C#N)nc1NCCc1cccc(F)c1 [methyl (2S)-2-{[(6-(2-cyanophenyl)-2-{[2-(3-fluorophenyl)ethyl]amino}(3-pyridyl))carbonylamino]methyl}-4-methylpiperazinecarboxylate]	10100

Compound	IC50 [nM]
COC(=O)[C@@H](C)CNC(=O)c1cc(F)c(-c2cnn(C)c2)nc1NCCc1cccc(F)c1 [methyl (2S)-3-[(5-fluoro-2-{[2-(3-fluorophenyl)ethyl]amino}-6-(1-methylpyrazol-4-yl)(3-pyridyl))carbonylamino]-2-methylpropanoate]	141
COC(=O)[C@H](CN)NC(=O)c1ccc(-c2ccccc2C#N)nc1NCCc1cccc(F)c1 [methyl (2S)-3-amino-2-[(6-(2-cyanophenyl)-2-{[2-(3-fluorophenyl)ethyl]amino}(3-pyridyl))carbonylamino]propanoate]	2320
COC(=O)N1CCC[C@H](CNC(=O)c2ccc(-c3ccccc3C#N)nc2NCCc2cccc(F)c2)C1 [methyl (3R)-3-{[(6-(2-cyanophenyl)-2-{[2-(3-fluorophenyl)ethyl]amino}(3-pyridyl))carbonylamino]methyl}piperidinecarboxylate]	718
CC(C)(C)OC(=O)N1CCOC(CNC(=O)c2ccc(-c3ccccc3)nc2NCCc2ccccn2)C1 (centres unmarked) [tert-butyl 2-[({6-phenyl-2-[(2-(2-pyridyl)ethyl)amino]-3-pyridyl}carbonylamino)methyl]morpholine-4-carboxylate]	65100
Cc1cc(C(=O)NC[C@H]2CCCN2C(=O)OC(C)(C)C)c(NCCc2cccc(F)c2)nc1-c1cnn(C)c1 [tert-butyl (2R)-2-{[(2-{[2-(3-fluorophenyl)ethyl]amino}-5-methyl-6-(1-methylpyrazol-4-yl)(3-pyridyl))carbonylamino]methyl}pyrrolidinecarboxylate]	3700
Cn1cc(-c2ccc(C(=O)NC[C@H]3CCCN3C(=O)OC(C)(C)C)c(NCCc3cccc(F)c3)n2)cn1 [tert-butyl (2R)-2-{[(2-{[2-(3-fluorophenyl)ethyl]amino}-6-(1-methylpyrazol-4-yl)(3-pyridyl))carbonylamino]methyl}pyrrolidinecarboxylate]	4640
CC(C)(C)OC(=O)N1CC[C@@H]1CNC(=O)c1ccc(-c2cn[nH]c2)nc1NCCc1cccc(F)c1 [tert-butyl (2R)-2-{[(2-{[2-(3-fluorophenyl)ethyl]amino}-6-pyrazol-4-yl(3-pyridyl))carbonylamino]methyl}azetidinecarboxylate]	525
CC(C)(C)OC(=O)N1CCC[C@@H]1CNC(=O)c1ccc(-c2cn[nH]c2)nc1NCCc1cccc(F)c1 [tert-butyl (2R)-2-{[(2-{[2-(3-fluorophenyl)ethyl]amino}-6-pyrazol-4-yl(3-pyridyl))carbonylamino]methyl}pyrrolidinecarboxylate]	3170
Cn1cc(-c2nc(NCCc3cccc(F)c3)c(C(=O)NC[C@H]3CCCN3C(=O)OC(C)(C)C)cc2Cl)cn1 [tert-butyl (2R)-2-{[(5-chloro-2-{[2-(3-fluorophenyl)ethyl]amino}-6-(1-methylpyrazol-4-yl)(3-pyridyl))carbonylamino]methyl}pyrrolidinecarboxylate]	1600
Cn1cc(-c2nc(NCCc3cccc(F)c3)c(C(=O)NC[C@H]3CCCN3C(=O)OC(C)(C)C)cc2C#N)cn1 [tert-butyl (2R)-2-{[(5-cyano-2-{[2-(3-fluorophenyl)ethyl]amino}-6-(1-methylpyrazol-4-yl)(3-pyridyl))carbonylamino]methyl}pyrrolidinecarboxylate]	2520
CC(C)(C)OC(=O)N1CCC[C@@H]1CNC(=O)c1cc(C#N)c(-c2cn[nH]c2)nc1NCCc1cccc(F)c1 [tert-butyl (2R)-2-{[(5-cyano-2-{[2-(3-fluorophenyl)ethyl]amino}-6-pyrazol-4-yl(3-pyridyl))carbonylamino]methyl}pyrrolidinecarboxylate]	6410
Cn1cc(-c2nc(NCCc3cccc(F)c3)c(C(=O)NC[C@H]3CCN3C(=O)OC(C)(C)C)cc2F)cn1 [tert-butyl (2R)-2-{[(5-fluoro-2-{[2-(3-fluorophenyl)ethyl]amino}-6-(1-methylpyrazol-4-yl)(3-pyridyl))carbonylamino]methyl}azetidinecarboxylate]	525
Cn1cc(-c2nc(NCCc3cccc(F)c3)c(C(=O)NC[C@H]3CCCN3C(=O)OC(C)(C)C)cc2F)cn1 [tert-butyl (2R)-2-{[(5-fluoro-2-{[2-(3-fluorophenyl)ethyl]amino}-6-(1-methylpyrazol-4-yl)(3-pyridyl))carbonylamino]methyl}pyrrolidinecarboxylate]	1460
CC(C)(C)OC(=O)N1CC[C@@H]1CNC(=O)c1cc(F)c(-c2cn[nH]c2)nc1NCCc1cccc(F)c1 [tert-butyl (2R)-2-{[(5-fluoro-2-{[2-(3-fluorophenyl)ethyl]amino}-6-pyrazol-4-yl(3-pyridyl))carbonylamino]methyl}azetidinecarboxylate]	289
CC(C)(C)OC(=O)N1CCC[C@@H]1CNC(=O)c1ccc(-c2ccccc2C#N)nc1NCCc1cccc(F)c1 [tert-butyl (2R)-2-{[(6-(2-cyanophenyl)-2-{[2-(3-fluorophenyl)ethyl]amino}(3-pyridyl))carbonylamino]methyl}pyrrolidinecarboxylate]	1930
CC(C)(C)OC(=O)N1CCC[C@@H]1CNC(=O)c1cc(F)c(-c2ccccc2C#N)nc1NCCc1cccc(F)c1 [tert-butyl (2R)-2-{[(6-(2-cyanophenyl)-5-fluoro-2-{[2-(3-fluorophenyl)ethyl]amino}(3-pyridyl))carbonylamino]methyl}pyrrolidinecarboxylate]	9040
